Test results from patent publication US20090005435A1, “Novel Compounds, Pharmaceutical Compositions Containing Same, and Methods of Use for Same” (priority 2004, published 2009).
Values after ≈ are worked out from the molar mass of the structure shown. Values joined by “and” are separate entries in the source; they are usually repeats but may differ in a detail not shown here. Equal entries are not always repeated.

Experiments:
[1] = tested on: MCF-7 human breast cancer cells; assay: XTT cytotoxicity assay (M); assay type: cell-based; conditions: MCF7
Description: (§1) The XTT assay is a non-radioactive alternative for the [^51Cr] release cytotoxicity assay. XTT is a tetrazolium salt that is reduced to a formazan dye only by metabolically active, viable cells. The reduction of XTT is measured spectrophotometrically as OD490-OD650.
To measure the cytotoxicity of specific compounds against cancer cells, 9×10^3 MCF-7 human breast cancer cells, obtained from the American Type Culture Collection are plated per well in 96 well plates in DMEM medium with 10% fetal bovine serum, insulin, penicillin, and streptomycin. Following overnight culture at 37° C. and 5% CO2, the compounds to be tested, dissolved in DMSO, are added to the wells in 1 μl volume at the following concentrations: 80, 40, 20, 10, 5, 2.5, 1.25, and 0.625 μg/ml in triplicate. Additional concentrations are tested if required. 1 μl of DMSO is added to triplicate wells are the vehicle control. C75 is run at 40, 20, […], and 5 μg/ml in triplicate as positive controls.
(§2) After 72 hours of incubation, cells are incubated for 4 hours with the XTT reagent as per manufacturer's instructions (Cell Proliferation Kit II (XTT) Roche). Plates are read at OD490 and OD650 on a Molecular Devices SpectraMax Plus Spectrophotometer. Three wells containing the XTT reagent without cells serve as the plate blank. XTT data are reported as OD490-OD650. Averages and standard error of the mean are computed using SOFTmax Pro software ([…]).
(§3) The IC50 for the compounds is defined as the concentration of drug leading to a 50% reduction in OD490-OD650 compared to controls. The OD490-OD650 are computed by the SOFTmax PRO software (Molecular Devices) for each compound concentration. IC50 is calculated by linear regression, plotting the FAS activity as percent of control versus drug concentrations. Linear regression, best-fit line, r^2, and 95% confidence intervals are determined using Prism Version 3.0 (Graph Pad Software).

[2] = tested on: (O); assay: XTT cytotoxicity assay (O); assay type: cell-based; conditions: read-out: XTT (IC50) (O)
Description: as §1, §2, §3

[3] = Weight loss screen; assay type: in vivo, Balb/C mice; conditions: 60 mg/kg
Description: Weight Loss Screen for Novel FAS Inhibitors Balb/C mice (Jackson Labs) are utilized for the initial weight loss screening. Animals are housed in temperature and 12 hour day/night cycle rooms and fed mouse chow and water ad lib. Three mice are utilized for each compound tested with vehicle controls in triplicate per experiment. For the experiments, mice are housed separately for each compound tested three mice to a cage. Compounds are diluted in DMSO at 10 mg/ml and mice are injected intraperitoneally with 60 mg/kg in approximately 100 μl of DMSO or with vehicle alone. Mice are observed and weighed daily; average weights and standard errors are computed with Excel (Microsoft). The experiment continues until treated animals reach their pretreatment weights. Select compounds are tested in animals housed in metabolic cages. Dosing of animals are identical to the screening experiments with three animals to a single metabolic cage. Animal weights, water and food consumption, and urine and feces production are measured daily.

[4] = tested on: fatty acid oxidation; assay: β-Oxidation assay, isolation of acid soluble products; assay type: cell-based; parameters: Beta Oxidation: unit not given here; conditions: for FAO MAx: maximal fatty acid oxidation, at the concentration given under E32
Description: β-Oxidation Assay—Isolation of Acid Soluble Products A 24 well plate with 1 ml per well was prepared with 2.5×10^5 cells/well. The cells were incubated O/N. The next day, a solubilized palmitate solution was prepared. 50 μls of (1-^14C) Palmitic acid was added to a 2 ml centrifuge tube and dried under nitrogen gas. 2 mls of α-CD (α-Cyclodextran)-10 mg/ml in 10 mM Tris were added. This solution was incubated in a 37° C. water bath for 30 minutes. A hot mix was prepared by adding 25 μls of this solution to 2.5 μls of 200 μM Carnitine and 222.5 μls of serum free medium that is used for cells. The cells were then treated with the test compound in triplicate, and incubated at 37° C. for 60 minutes. The medium was removed and 250 μls of the hot mix were added. The test compound was added again, and further incubated at 37° C. for 60 minutes. The reaction was stopped with 50 μls of 2.6 N HClO4. The contents of the plate were transferred to a 1.5 ml centrifuge tube, and 50 μls of 4N KOH were then added, and the tube incubated in a 60° C. water bath for 30 min. Sodium acetate (1M, 75 μls) and sulfuric acid (3N, 50 μls) were added to the solution and vortexed. The tube was spun for 7 minutes at 1000 rpm at room temperature. A portion (225 μls) was removed, and the following were added (vortex after each addition, twice at the end): 938 μls of 1:1 Chloroform:Methanol; 468 μls of Chloroform; 281 μls distilled Water. The tubes were spun at 1000 rpm for 5 minutes. The upper phase was removed into a large glass scintillation vial and 5 mls of Budget solvent (scintillation liquid) was added. The tubes were well vortexed. Finally, C14 was counted for one minute.

Row | SMILES | IC50 [1] [µg/mL] | IC50 [2] [µg/mL] | Weight Loss ([3]; day 2) | FAO MAx, concentration at maximum [4] [µg/mL] | FAO SC 150 [4] [µg/mL] | Beta Oxidation ([4]; 0.097 ug/ml) | Beta Oxidation ([4]; 0.39 ug/ml) | Beta Oxidation ([4]; 1.56 ug/ml) | Beta Oxidation ([4]; 6.25 ug/ml) | Beta Oxidation ([4]; 25 ug/ml) | Beta Oxidation ([4]; 100 ug/ml) | FAO MAx [4] [%] | Weight Loss ([3]; day 1) | Beta Oxidation ([4]; 1.25 ug/ml) | Beta Oxidation ([4]; 2.5 ug/ml) | Beta Oxidation ([4]; 5 ug/ml) | Beta Oxidation ([4]; 10 ug/ml) | Beta Oxidation ([4]; 20 ug/ml) | Beta Oxidation ([4]; 40 ug/ml)
1 | CCCCCCCCCCC1(C)SC(=O)C(C)(C)C1=O (stereo not drawn) [Compound 12, 3,3,5-Trimethyl-5-decyl-thiophene-2,4-dione] | 23.2 (≈ 77.7 µM) | > 80 | 60 mg/kg: 9.0% (day 2) | 1.56 | 1.4 | 100 | 120 | 154 | 141 | 75 | 68 | 154 |  |  |  |  |  |  | 
2 | C=CCC1(CC=C)C(=O)SC(C)(CCCCCCCCCC)C1=O (stereo not drawn) [Compound 15, 3,3-Diallyl-5-methyl-5-decyl-thiophene-2,4-dione] | 71.8 (≈ 205 µM) | > 80 | 60 mg/kg: 3.5% (day 2) | 25 | 16.0 | 105 | 114 | 127 | 138 | 165 | 150 | 165 |  |  |  |  |  |  | 
3 | C=CCC1(CC=C)C(=O)SC(C)(CCCCCCCC)C1=O (racemic) [Compound 4, 3,3-Diallyl-5-methyl-5-octyl-thiophene-2,4-dione] | 40.5 ± 14.8 (≈ 126 µM) | 53.7 ± 1 (≈ 167 µM) |  |  |  |  |  |  |  |  |  |  | 7.9% and 8.0% and 6.8% | 94 and 151 | 114 and 163 | 120 and 154 and 177 | 163 and 177 and 184 | 147 | 101
